Type in all cases: cell-based
The test system of data set [1] is Staphylococcus aureus (DSM 346). Description: Antimicrobial assay (MIC), S. aureus. The conditions noted are these: n.i. = no inhibition up to 67 μg/mL. As to the method: (§1) The antimicrobial effects of the isolated compounds were determined using our established protocols.[19] Generally, an array of clinically relevant microorganisms consisting of bacteria, namely, S. aureus (DSM 346), A. baumanii (DSM 30008), B. subtilis (DSM 10), E. coli (DSM 1116), P. aeruginosa (PA14), C. violaceum (DSM 30191), and M. smegmatis (ATCC 700084), and fungi including M. hiemalis (DSM 2656), C. albicans (DSM 1665), R. glutinis (DSM 10134), S. pombe (DSM 70572), and P. anomala (DSM 6766), were used. […] The minimum inhibitory concentrations (MIC) were recorded after an overnight incubation as the lowest concentration under which no microbial growth was visualized. The microorganisms were obtained from the German Collection of Microorganisms and Cell Cultures (DSMZ, Braunschweig, Germany).

Data set [2] has as its system Rhodotorula glutinis (DSM 10134). The experiment in a line: Antimicrobial assay (MIC), R. glutinis. Conditions: overnight incubation, n.i. = no inhibition up to 67 μg/mL. As to the method: as §1
The subject of data set [3] is Chromobacterium violaceum (DSM 30191). The experiment in a line: Antimicrobial assay (MIC), C. violaceum. Conditions: overnight incubation, n.i. = no inhibition up to 67 μg/mL. As to the method:
as §1

The test system of a further data set is mouse fibroblast (L929). The experiment in a line: Cytotoxicity (MTT) assay, L929. An excerpt:
(§2) MTT (3-(4,5-dimethylthiayol-2-yl)-2,5-diphenyltetrazolium bromide)-based assay was used to determine in vitro cytotoxicity as previously reported.[24] The tested mammalian cell lines included mouse fibroblasts (L929), endocervical adenocarcinoma (KB3.1), human lung carcinoma (A549), breast adenocarcinoma (MCF-7), prostate carcinoma (PC-3), and epidermoid carcinoma cells (A431).

In data set [4] the test system is Schizosaccharomyces pombe (DSM 70572). Description: Antimicrobial assay (MIC), S. pombe. Conditions: overnight incubation, n.i. = no inhibition up to 67 μg/mL. As to the method: as §1
Data set [5] relates to human endocervical adenocarcinoma (KB3.1). The experiment in a line: Cytotoxicity (MTT) assay, KB3.1.
Description: as §2

The subject of data set [6] is Pichia anomala (DSM 6766). The experiment in a line: Antimicrobial assay (MIC), P. anomala. The conditions noted are these: Pichia anomala; overnight incubation; n.i. = no inhibition up to 67 μg/mL. How it is done:
as §1

In data set [7] the test system is Mycobacterium smegmatis (ATCC 700084). The experiment in a line: Antimicrobial assay (MIC), M. smegmatis. Conditions: Mycobacterium smegmatis; overnight incubation; n.i. = no inhibition up to 67 μg/mL. How it is done: as §1
For data set [8], the system named is Pseudomonas aeruginosa (PA14). Description: Antimicrobial assay (MIC), P. aeruginosa. The conditions noted are these: overnight incubation, n.i. = no inhibition up to 67 μg/mL. As to the method:
as §1

Data set [9] deals with Escherichia coli (DSM 1116). The experiment in a line: Antimicrobial assay (MIC), E. coli. Conditions: overnight incubation, n.i. = no inhibition up to 67 μg/mL. How it is done:
as §1

The subject of data set [10] is Acinetobacter baumanii (DSM 30008). Description: Antimicrobial assay (MIC), A. baumanii. Conditions: overnight incubation, n.i. = no inhibition up to 67 μg/mL. How it is done:
as §1

The test system of data set [11] is Bacillus subtilis (DSM 10). Description: Antimicrobial assay (MIC), B. subtilis. Conditions: n.i. = no inhibition up to 67 μg/mL. How it is done:
as §1

In data set [12] the test system is Mucor hiemalis (DSM 2656). The experiment in a line: Antimicrobial assay (MIC), M. hiemalis. Conditions: n.i. = no inhibition up to 67 μg/mL. How it is done: as §1
In data set [13] the test system is Candida albicans (DSM 1665). The experiment in a line: Antimicrobial assay (MIC), C. albicans. Conditions: overnight incubation, n.i. = no inhibition up to 67 μg/mL. As to the method: as §1
The subject of data set [14] is human breast adenocarcinoma (MCF-7). The experiment in a line: Cytotoxicity (MTT) assay, MCF-7. The conditions noted are these: MCF7, read-out: IC50, positive control epothilone B. An excerpt: (§3) MTT (3-(4,5-dimethylthiayol-2-yl)-2,5-diphenyltetrazolium bromide)-based assay was used to determine in vitro cytotoxicity as previously reported.[24] The tested mammalian cell lines included mouse fibroblasts (L929), endocervical adenocarcinoma (KB3.1), human lung carcinoma (A549), breast adenocarcinoma (MCF-7), prostate carcinoma (PC-3), and epidermoid carcinoma cells (A431). Epothilone B was used as a positive control.

Data set [15] deals with human lung carcinoma (A549). The experiment in a line: Cytotoxicity (MTT) assay, A549. Conditions: A549, read-out: IC50, positive control epothilone B.
Description: as §3

The subject of data set [16] is human ovarian cancer (SKOV-3). Description: Cytotoxicity (MTT) assay, SKOV-3. The conditions noted are these: SK-OV-3, read-out: IC50, positive control epothilone B.
Data set [17] deals with human epidermoid carcinoma (A431). Description: Cytotoxicity (MTT) assay, A431. Conditions: A-431, read-out: IC50, positive control epothilone B.
Description: as §3

The subject of data set [18] is human prostate carcinoma (PC-3). The experiment in a line: Cytotoxicity (MTT) assay, PC-3. Conditions: PC-3, read-out: IC50, positive control epothilone B.
Description: as §3

[19] abbreviates: DSM346, overnight incubation, read-out: MIC.

≈ marks a conversion by molar mass, not a printed value. Read-outs that look alike come from different tables or passages of the source.

The MIC is the lowest concentration that inhibits growth of the organism. For `CC(C)=CCC(/C=C(\CO)CCO)C(=O)O` (centres unmarked) [Compound 3, sterepinic acid A], the MIC in [1] (setting [19]) is 66.6 µg/mL (≈ 292 µM); in data set [2] it was “n.i”; in [3], “n.i”; in data set [4], “n.i”; in data set [6], “n.i”; in data set [7] it was “n.i”. Further, the minimum inhibitory concentration (MIC) entry in data set [8], in data set [9], in data set [10], in data set [11] (overnight incubation), in [12] (overnight incubation) and in data set [13] was “n.i” in each case. In addition, the “cytotoxicity (in words)” value (in the data set on mouse fibroblast (L929); in data set [5]) was “non-cytotoxic” throughout.
On to `CC(C)=CCC(CC1=CC(=O)OC1)C(=O)O` (centres unmarked) [Compound 2, vibralactones J], for which the minimum inhibitory concentration (MIC) entry in [1] (overnight incubation), in [2], in data set [3], in data set [4], in [6] and in data set [7] was “n.i” throughout. In addition, the minimal inhibitory concentration (MIC) result in data set [8], in data set [9], in [10], in [11] (overnight incubation), in [12] (overnight incubation) and in data set [13] was “n.i” throughout.
`COc1ccc(C(=O)C(C)O)cc1` (centres unmarked) [Compound 12, 2-hydroxy-(4′-methoxy)-propiophenone]: the minimal inhibitory concentration (MIC) entry in data set [1] (overnight incubation), in data set [2], in data set [3], in [4], in [6] and in data set [7] was “n.i” each time. For the same compound, the MIC result in data set [8], in [9], in data set [10], in data set [11] (overnight incubation), in [12] (overnight incubation) and in data set [13] was “n.i” in each case.
With `COc1ccc([C@H](O)[C@H](C)O)cc1` [Compound 11, (4-methoxyphenyl)-1,2-propanediol], the MIC result in data set [1] (overnight incubation), in [2], in [3], in data set [4], in data set [6] and in data set [7] was “n.i” in each case. Moreover, the minimum inhibitory concentration (MIC) result in data set [8], in [9], in data set [10], in data set [11] (overnight incubation), in data set [12] (overnight incubation) and in data set [13] was “n.i” each time.
For the compound `CC(C)(O)[C@H]1C[C@@H](CC2=CC(=O)OC2)C(=O)O1` [Compound 4, vibralactones Z1], the minimum inhibitory concentration (MIC) result in data set [1] (overnight incubation), in [2], in data set [3], in data set [4], in data set [6] and in [7] was “n.i” throughout. For the same compound, the minimum inhibitory concentration (MIC) result in data set [8], in data set [9], in data set [10], in [11] (overnight incubation), in data set [12] (overnight incubation) and in data set [13] was “n.i” in each case.
For the compound `CN(C)[C@@H]1C(O)=C(C(N)=O)C(=O)[C@@]2(O)C(O)=C3C(=O)c4c(O)cccc4[C@@](C)(O)[C@H]3[C@H](O)[C@@H]12` [oxytetracycline, reference compound], in data set [11] (DSM10, overnight incubation, read-out: MIC), the minimum inhibitory concentration (MIC) was 16.6 µg/mL (≈ 36.1 µM).
Regarding `CC(C)=CC[C@H]1C=C(CO)C=COC1=O` [Compound 6, 1,5-secovibralactone], the MIC entry in data set [1] (overnight incubation), in data set [2], in data set [3], in data set [4], in [6] and in data set [7] was “n.i” throughout. In addition, the minimal inhibitory concentration (MIC) result in data set [8] was “n.i”; in data set [9], “n.i”; in data set [10], “n.i”; in data set [11] (overnight incubation) it was “n.i”; in [12] (DSM2656, overnight incubation, read-out: MIC) it was 66.6 µg/mL (≈ 320 µM); in [13], “n.i”.
Regarding `CC(C)(O)[C@H]1C[C@H](CC2=CC(=O)OC2)C(=O)O1` [Compound 5, vibralactones Z2], the minimal inhibitory concentration (MIC) in data set [1] (setting [19]) was 66.6 µg/mL (≈ 277 µM); in data set [2] it was “n.i”; in [3] it was “n.i”; in data set [4], “n.i”; in [6], “n.i”; in data set [7], “n.i”. In addition, the MIC result in data set [8], in data set [9], in [10], in [11] (overnight incubation), in [12] (overnight incubation) and in [13] was “n.i” in each case. Also, the “cytotoxicity (in words)” value (in the data set with mouse fibroblast (L929); in [5]) was “non-cytotoxic” in each case.
As for Gentamycin [reference compound], the minimum inhibitory concentration (MIC) in data set [1] (overnight incubation) was 0.42^G μg/mL; in [3], 1.67^G μg/mL; in data set [8], 0.42^G μg/mL; in [9] it was 0.83^G μg/mL.
With `NC[C@H]1O[C@H](O[C@H]2[C@H](O)[C@@H](O[C@H]3O[C@H](CO)[C@@H](O)[C@H](N)[C@H]3O)[C@H](N)C[C@@H]2N)[C@H](O)[C@@H](O)[C@@H]1O` [kanamycin, reference compound], the MIC in data set [7] is recorded as 1.70^K μg/mL.
For the compound `C[C@@H]1[C@H](O)[C@@H](C)/C=C/C=C/CC/C=C/C=C/C=C/C=C/C(O[C@H]2O[C@H](C)[C@@H](O)[C@H](N)[C@@H]2O)CC2O[C@](O)(CC(O)C(O)CCC(O)CC(O)CC(O)CC(=O)O[C@H]1C)CC(O)C2C(=O)O` (some centres unmarked) [nystatin, reference compound], the MIC in data set [2] was 4.20^N μg/mL; in [4], 8.30^N μg/mL; in data set [6] it was 8.30^N μg/mL; in data set [12] (overnight incubation), 8.30^N μg/mL; in data set [13], 8.30^N μg/mL.
By IC50 is commonly meant the point on the concentration scale where inhibition reaches its midpoint. Consider `C/C(=C\c1csc(C)n1)[C@@H]1C[C@@H]2O[C@]2(C)CCC[C@H](C)[C@H](O)[C@@H](C)C(=O)C(C)(C)[C@@H](O)CC(=O)O1` [epothilone B, Epothilone B, reference compound], for which the IC50 in [14] was 0.07 nM; in data set [15] it was 0.05 nM; in data set [16], 0.09 nM; in [17], 0.06 nM; in [18], 0.09 nM.

For the origin of these results see paper PMC11044139, “Comparative Study of Toxic Terpenoidal Aldehydes and Lactone Derivatives from the European Polypore Bondarzewia mesenterica” (ACS Omega, 2024).
